Entries after “also recorded” stand apart in the source; their conditions may differ. Marks after values point to notes of the source that are not given here.
Experiments:
[1] = tested on: primary cultures of corneal endothelial cells; test: Seahorse XFe96 mitochondrial respiration of primary cultures of corneal endothelial cells; assay type: cell-based, human; conditions: uncomplexed coenzyme Q10 (100 μM) or cyclodextrin alone vs diluent control
Description: (§1) Human corneas were obtained by Iowa Lions Eye Bank (ILEB) from nondiabetic donors 60-75 years old and stored in Optisol GS (Bausch+Lomb, Irvine, Calif.) at 4° C. following procurement in accordance with Eye Bank Association of America and ILEB policies and procedures. Endothelial cells were isolated and cultured in Seahorse XFe96 well plates until they reached confluency. Purity of cell cultures were confirmed with anti-zonula occludens 1 (ZO-1) labeling of cellular tight junctions. Once confluent, cells were treated with different concentrations of cyclodextrin-coenzyme Q10 complex in culture (1 μM, 10 μM, or 100 μM) uncomplexed coenzyme Q10 (100 μM), cyclodextrin alone, or diluent control. Mitochondrial respiration was assayed by measuring oxygen consumption using the Seahorse XFe96 Extracellular Flux Analyzer (Agilent Technologies, Santa Clara, Calif.) over 120 minutes (9-minute intervals). Wells were labeled with a nuclear counterstain (DAPI) and nuclei were counted in each well to normalize respirometry data.
Seahorse respiration assays were conducted with MitoQ with doses ranging from 0 to 10 μM. All experiments were performed on corneal endothelial cells in culture and analyzed using the XFe96 Extracellular Flux Analyzer.
as §1, with “MitoQ with doses ranging from 0 to” for “different concentrations of cyclodextrin-coenzyme Q10 complex in culture (1 μM,”, “μM.” for “μM, or 100 μM) uncomplexed coenzyme Q10 (100 μM), cyclodextrin alone, or diluent control.”

[2] = tested on: human donor corneal endothelial cells; test: Mitochondrial respiration assay (Seahorse XFe24 extracellular flux analyzer) of donor corneal endothelium after storage in supplemented Optisol GS; assay type: cell-based; conditions: for ATP Production, Mean (SD) / Maximal Respiration, Mean (SD) / Non-mitochondrial Respiration, Median [IQR] / Proton Leak, Mean (SD) / Spare Respiratory Capacity, Mean (SD) / Basal, Mean (SD): OCR per cell (pmole/min/cell)
Description: Human corneal tissue pairs were obtained by Iowa Lions Eye Bank (ILEB) from nondiabetic donors 60-75 years old and stored in Optisol GS (Bausch+Lomb, Irvine, Calif.) at 4° C. following procurement in accordance with Eye Bank Association of America and ILEB policies and procedures. For 5 days prior to testing, but within 9 days of procurement, one stored tissue from a corneal pair was treated with 10 μM CoQ10, while the mate tissue was treated with diluent only as a control. Descemet membrane and endothelial cell punches were collected and mounted onto the bottom of a Seahorse assay plate (cells facing upward). Mitochondrial respiration was assayed by measuring oxygen consumption using the Seahorse XFe24 Extracellular Flux Analyzer (Agilent Technologies, Santa Clara, Calif.) over 120 minutes (9-minute intervals). Punches were labeled with a nuclear counterstain (DAPI) and remaining tissues were mounted onto slides and labeled with 488A-Annexin V, Ethidium Homodimer III, and Hoechst 33342 (Apoptotic, Necrotic, and Healthy Cells Quantification Kit; Biotium, Fremont, Calif.) to assay cell health. Nuclei were counted in each punch to normalize respirometry data. Immunohistochemistry densitometry was measured using ImageJ software.
Human donor whole globe eye pairs were obtained by Iowa Lions Eye Bank (ILEB) and the anterior portion of the eyes were removed. For 14 days, one cornea was stored from a corneal pair treated with 1 mM ascorbate-2-phosphate, while the mate tissue was treated with diluent only as a control. Descemet membrane and endothelial cell punches were collected and mounted onto the bottom of a Seahorse assay plate (cells facing upward). Mitochondrial respiration was assayed by measuring oxygen consumption using the Seahorse XFe24 Extracellular Flux Analyzer (Agilent Technologies, Santa Clara, Calif.) over 120 minutes (9-minute intervals). Punches were labeled with a nuclear counterstain (DAPI) and nuclei were counted in each punch to normalize respirometry data. […]
Tissue preparation and extracellular flux assays for mitochondrial respiration were performed as described in Greiner et al. (2015). In brief, after pre-stripping the EDM, 3 mm diameter EDM punches were mounted in wells of a XF24 microplate (Agilent Technologies, Santa Clara, Calif.). After acclimation for one hour at 37° C. in non-buffered assay media, metabolic activity of the EDM samples was quantified using a commercial kit (XF Cell Mito Stress Test Kits; Agilent Technologies) on a Seahorse XFe24 extracellular flux analyzer (Agilent Technologies). Following extracellular flux analysis, tissues were labeled fluorescently using a 1:1000 Sytox Green nucleic acid stain in the microtiter plate (Life Technologies, Grand Island, N.Y.) and imaged on an Olympus IX-81 inverted microscope (Olympus America, Center Valley, Pa.) using a FITC filter. Cell counts were determined using Image J (https://imagej.nih.gov/ij/download.html) and used to compute the oxygen consumption rate per cell (OCR; pmole/min/cell). Raw OCR values were used to calculate several different key parameters of metabolic function per manufacturer's directions (Agilent Technologies), as in Aldrich et al. (2017). The parameters and calculations used in this study were the main outcome measures, including basal respiration, ATP-associated oxygen consumption, proton [H^+] leak, maximal respiration, spare respiratory capacity, non-mitochondrial respiration, and coupling efficiency as described in Schneider et al. and Goldstein et al. (2018).
Mitochondrial Respiration Assay: 3 mm punches of central and peripheral endothelium-Descemet membrane complex (EDM) were secured to the bottom of cell culture microplate wells or CECs were grown directly onto microplate.

[3] = Stability in water (yellowish discoloration = oxidation to ubiquinone); assay type: physicochemical; conditions: shaken in water for 24 h
Description: • γ-CD was dissolved in water at different concentrations, and ubiquinol was added to it while stirring (protected from light). • Stirring continues for 2-5 days. Finally, the formed precipitate (complex) was collected and dried. • Yellow discoloration, which indicates the oxidation of ubiquinol following the formation of the yellow oxidized form (ubiquinone), was noticeable at different degrees depending on the stirring time.
In FIG. 11, the image on the right is 5 mg of CoQ10 added to 10 ml H2O and shaken for 24 hours. […] The instability of ubiquinol in water after both free drug or the complex was stirred in water for 24 h explains why the kneading method that involves the minimum amount of water was chosen form preparation.

[4] = 10 μM CoQ10 (ubiquinol), 5 days in Optisol GS, vs diluent-treated mate cornea, 13 or 14 paired corneas
[5] = 10 μM ubiquinol vs diluent-treated mate cornea, 5 days, n = 13
[6] = 10 μM ubiquinol, 5 days in Optisol-GS, n = 13
[7] = Example 13: 10 μM ubiquinol, 5 days in Optisol-GS, N=13, vs controls
[8] = palmitate-BSA treated tissues (100 μM), 5 days, n = 7

## ubiquinol
[1]
  mitochondrial spare respiratory capacity: reduces mitochondrial spare respiratory capacity
[2]; 1 μM coQ10, among doses 0.5, 1, 5, 7.5 μM
  non-mitochondrial respiration: largest increase in non-mitochondrial respiration
[2]; 1 μM coQ10, tissues in storage (compared with the 10 μM dose)
  mitochondrial spare respiratory capacity: did not show a bolstering of mitochondrial spare respiratory capacity function
[2]; 10 μM CoQ10 (ubiquinol), 5 days in Optisol GS at 4° C., vs diluent-treated mate cornea, 13 or 14 paired corneas
  proton leak increased: 34%
[2]; [4]
  maximal respiration increased: 97%
  spare respiratory capacity increased: 133%
[2]; [5]
  ATP Production, Mean Difference: Ubiquinol-Control (95% CI): −0.0001 (−0.0033, 0.0032)
  Basal, Mean Ratio: Ubiquinol/Control (95% CI): Ratio: 1.12 (0.88, 1.43)
  Coupling Efficiency, Mean Difference: Ubiquinol-Control (95% CI): −0.0655 (−0.1550, 0.0240)
  Maximal Respiration, Mean Ratio: Ubiquinol/Control (95% CI): Ratio: 1.93 (1.31, 2.85)
  Non-mitochondrial Respiration, Median Difference: Ubiquinol-Control (95% CI): 0.000013^# (−0.00255, 0.00123)
  Proton Leak, Mean Ratio: Ubiquinol/Control (95% CI): Ratio: 1.80 (1.01, 3.21)
  Spare Respiratory Capacity, Mean Ratio: Ubiquinol/Control (95% CI): Ratio: 2.74 (1.61, 4.66)
[2]; [6]
  Coupling Efficiency, Mean (SD): 0.5303 (0.1141)
  ATP Production, Mean (SD): 0.0116 (0.0049)
  Maximal Respiration, Mean (SD): 0.0998 (0.0799)
  Non-mitochondrial Respiration, Median [IQR]: 0.00662
  Proton Leak, Mean (SD): 0.0091 (0.0049)
  Spare Respiratory Capacity, Mean (SD): 0.0781 (0.0734)
[2]; 10 μM ubiquinol, 5 days in Optisol-GS, n = 13 matched tissues
  Basal, Mean (SD): 0.0202 (0.0087)
[2]; [7]
  maximal respiration increased: 93%
  proton leak increased: 80%
  spare respiratory capacity increased: 174%
[2]; palmitate-BSA treated tissues (100 μM), 5 days in Optisol-GS, n = 7 matched tissues
  Basal, Mean (SD): 0.0251 (0.0138)
[2]; [8]
  Coupling Efficiency, Mean (SD): 0.5376 (0.1891)
  ATP Production, Mean (SD): 0.0155 (0.0090)
  Maximal Respiration, Mean (SD): 0.1102 (0.0309)
  Non-mitochondrial Respiration, Median [IQR]: 0.00809
  Proton Leak, Mean (SD): 0.0106 (0.0075)
  Spare Respiratory Capacity, Mean (SD): 0.0833 (0.0212)
[2]; ubiquinol supplemented vs non-supplemented CEC (FIG. 1)
  oxygen consumption rate (OCR) of CEC: High OCR; also recorded: increased oxygen consumption rate
[3]
  stability in water (discoloration): yellowish discoloration was noticeable

Reference: patent US20220249399A1, “COMPOSITION COMPRISING AN ANTI-OXIDANT TO PRESERVE CORNEAL TISSUE” (University of lowa Research Foundation, priority 2019, published 2022)
